Measurements published in PMC8772433 (Nature structural & molecular biology, 2021).

Target: SARS-CoV-2 ORF3a (3a), dimer (Severe acute respiratory syndrome coronavirus 2, UniProt P0DTC3)
Assay: patch-clamp current recording, excised inside-out patches of 3a-proteoliposomes
Format: biochemical
Conditions: symmetric 150 mM KCl, pH 7.2, -80 mV, room temperature; soy PC proteoliposomes; flickery block at negative potentials

Chain of SARS-CoV-2 ORF3a (3a), dimer (P0DTC3 whole entry): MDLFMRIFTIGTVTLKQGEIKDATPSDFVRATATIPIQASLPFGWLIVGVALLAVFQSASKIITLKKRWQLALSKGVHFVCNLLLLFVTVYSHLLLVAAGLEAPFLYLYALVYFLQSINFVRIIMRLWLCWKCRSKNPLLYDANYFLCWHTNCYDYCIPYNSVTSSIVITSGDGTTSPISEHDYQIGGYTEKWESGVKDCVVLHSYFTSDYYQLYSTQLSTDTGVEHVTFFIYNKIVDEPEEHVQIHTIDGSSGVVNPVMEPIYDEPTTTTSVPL

## Ruthenium Red
  IC50: 90 ± 10 µM
